# Measurements as given in patent publication EP3431468B1, “USE OF ADIPONECTIN RECEPTOR AGONISTS IN TREATING DEPRESSION, ANXIETY AND NEUROINFLAMMATION” (CENTRE NATIONAL DE LA RECHERCHE SCIENTIFIQUE, priority 2017, dated 2019).
# How the values were obtained:
# [1] = test system: corticosterone-treated mice; experiment: Social interaction test, chronic administration; type: in vivo; conditions: chronic 1mg/kg ip daily
# Experimental: Three well-established mouse models of depression-like behavior have been used in the present study namely i- the long-term corticosterone treatment in the drinking water (David, Samuels et al. 2009), ii- the peripheral administration of LPS (O'Connor, Lawson et al. 2009) iii- the ApN^-/- mice (Liu, Guo et al. 2012). For chronic AdipoRon treatment, the experimental protocol was as followed: • i- Five weeks old male mice (five/cage) received corticosterone (35mg/L dissolved in tap water containing 4 g/L CD) or vehicle alone ad libitum for during 7 consecutive weeks (David, Samuels et al. 2009). Corticosterone and vehicle solutions were changed every 3 days to prevent possible degradation. […]
# All behavioral testing were conducted during the light phase (between 09:00 and 14:00 am) in compliance with the Institutional Animal Care and Use Committee of the University of Nice-Sophia Antipolis (permission number 010344.01 from the French "Ministère de l'Enseignement Supérieur et de la Recherche" granted to Dr. Joëlle Chabry). • Forced Swimming test (FST) - Mice were placed an inescapable transparent tank (20cm diameter, 30cm deep) filled with water (23°C ± 0.5) for six minutes as previously described by Porsolt et al. (1977). […] To initiate testing, mice were placed into the light side and activity was recorded for 5 minutes. […]
# [2] = Weight, food and water intake under chronic treatment; type: in vivo, mice; conditions: chronic AdipoRon treatment
# Experimental: Three well-established mouse models of depression-like behavior have been used in the present study namely i- the long-term corticosterone treatment in the drinking water (David, Samuels et al. 2009), ii- the peripheral administration of LPS (O'Connor, Lawson et al. 2009) iii- the ApN^-/- mice (Liu, Guo et al. 2012). For chronic AdipoRon treatment, the experimental protocol was as followed: • i- Five weeks old male mice (five/cage) received corticosterone (35mg/L dissolved in tap water containing 4 g/L CD) or vehicle alone ad libitum for during 7 consecutive weeks (David, Samuels et al. 2009). Corticosterone and vehicle solutions were changed every 3 days to prevent possible degradation. Additionally, during the last three weeks of corticosterone treatment, mice were daily intraperitoneally (ip) injected with AdipoRon (1mg/kg in 2.5% DMSO) or vehicle alone. • ii- Eight weeks old male mice daily ip injected with AdipoRon or vehicle as described above for twenty consecutive days. One day prior behavioral testing, mice were injected ip with LPS (0.83 mg/kg) or saline solution; the LPS dose was selected on the basis of its ability to induce the full spectrum of the acute sickness and depressive-like behaviors (Lestage, Verrier et al. 2002).
compound,measurement,setting,value
"O=C(COc1ccc(C(=O)c2ccccc2)cc1)NC1CCN(Cc2ccccc2)CC1 [AdipoRon, 2-(4-Benzoylphenoxy)-N-[1-(phenylmethyl)-4-piperidinyl]-acetamide]",social interactions,[1]; corticosterone-treated mice,reversed the effect of corticosterone
same,social interactions,[1]; vehicle-treated mice (no corticosterone),no significant effect
same,food and water intake,[2],did not significantly modify
same,weight of mice,[2],did not significantly modify
